{
  "source": "patent US8334001B2",
  "about": "“Composition comprising mucilaginous polysaccharides derived from aloe barbadensis and method for obtaining same and use thereof” (Pharmabrand S.A., priority 2007, dated 2012)",
  "origin": "cited, not measured here",
  "note": "Like-named read-outs stand apart in the source and are kept apart here.",
  "data": [
    {"substance": "acemannan", "values": [
      {"measurement": "activation of the necrosis factor, kappa B", "setting": "necrosis factor, kappa B; concentration of 200 μg/ml", "value": "produces an activation"}
    ]},
    {"substance": "aloeride", "values": [
      {"measurement": "activation of the necrosis factor, kappa B", "setting": "necrosis factor, kappa B; concentrations of only 0.015% of the aloeride", "value": "the effect is shown"},
      {"measurement": "effect on TNF-alfa", "setting": "TNF-alfa", "value": "increases"}
    ]}
  ]
}
